Series [1] is described as follows: Blood partitioning (LC-MS/MS-based depletion method), human. The series is classed as in vitro ADME. The note with it: whole blood, humans blood, 0.3, 1, 3 μM, read-out: BP (blood-to-plasma concentration ratio). The protocol:
In this study, the partitioning of IDP-73152 in blood samples obtained from mice, rats, dogs, and humans was determined using the LC-MS/MS-based depletion method with slight modifications. DP-73152 was added to an aliquot (1 mL) of blank blood or plasma at a final concentration of 0.3, 1, or 3 μM. The mixture was incubated at 37 °C in a water bath for 60 min. After the incubation, the plasma was separated by centrifugation of the blood samples for 5 min at 10,000× g/4 °C and stored at -80 °C until analysis. The blood-to-plasma concentration ratio (BP) was calculated using the equation:(3) BP=[…], where […] is the concentration of the compound at the corresponding blood concentration in the plasma, and CPL is the concentration from the plasma sample separated from the incubated blood.

A short description of series [2]: PK study in dogs (intravenous and oral). The series is classed as in vivo. The protocol:
The in vivo experimental protocol was approved by the Institutional Animal Care and Use Committee of Research Laboratory at Ildong pharmaceutical Co., Ltd. (Ref. No.: IDL-PDF-001 and 09005-11004). Animals were acclimatized to the laboratory conditions for at least 1 week before the experiments and were kept in the standardized conditions (20–25 °C, 55 ± 5% humidity, and a 12 h light/dark cycle). The animals fasted overnight prior to drug administration, and food was resupplied 4 h post-dose.
Male beagle dogs (body weight 9.55–10.3 kg, Beijing Marshall Biotechnology, Beijing, China) received a single intravenous dose of 10 mg/kg IDP-73152 via the cephalic vein (i.e., the injection volume of 1 mL/kg, IDP-73152 in saline). When necessary, a single dose of IDP-73152 at 20 mg/kg was also orally administered to dogs in the form of hard gelatin capsules. Blood samples were collected from the jugular vein at 0.167, 0.33, 0.5, 1, 2, 4, and 8 h (for intravenous administration study), and 0.167, 0.33, 0.5, 1, 2, 4, 6, and 8 h (for oral administration study) after the administration. Plasma was separated/collected from the blood sample by centrifugation for 5 min at 10,000× g/4 °C and stored at −80 °C until the analysis.
When necessary for a model independent PK analysis, a standard moment analysis was carried out with WinNonlin software using either representative (for the study with mice) or individual (for the study with rats, dogs, and humans) concentration–time profile(s). For the calculation of PBPK models, Berkeley Madonna 8.3.18 (Albany, CA, USA) was used with the fourth-order Runge–Kutta method for numerical integration.

Series [3] can be described thus: Caco-2 cell bidirectional permeability. The settings on record: human; for recovery at 2 h, 10 µM: Caco-2, Caco-2. The format is in vitro ADME. As to the method:
In this study, bidirectional permeability assays were conducted as described in the literature, with minor modifications. Briefly, Caco-2 cells (KCLB, Seoul, Korea) were seeded on Transwell® inserts (Corning Inc., Glendale, AZ, USA) and grown in a humidified atmosphere of 5% CO2 at 37 °C to form a confluent monolayer over 3 weeks. On day 21, after seeding, the integrity of the cell monolayer was assessed by measuring the transepithelial electrical resistance using an epithelial voltohmmeter (EVOM and EVOMX, World Precision Instruments, Sarasota, FL, USA). The medium in donor and receiver compartments was then replaced with 5 mM of HEPES in HBSS, and preincubated for 10 min at 37 °C. The permeability study was initiated by adding IDP-73152 (in a 10 µM final concentration in the chambers) to an apical insert (for apical-to-basolateral (A-to-B) transport) or a basolateral chamber (for basolateral-to-apical (B-to-A) transport). Samples were collected from both compartments at 30 min intervals up to 2 h. Throughout the study, the temperature and atmosphere of the compartments were maintained at 37 °C and 5% CO2. The samples were stored at −80 °C until analysis and the concentration of the compound was determined by LC-MS/MS assay for IDP-73152 [10]. The apparent permeability coefficient (Papp, in cm/s) was calculated using the following equation:(1) Papp=(dQ/dt/C0×A) where dQ/dt is the rate of IDP-73152 transport across monolayers (nmol/s), C0 is the initial concentration of IDP-73152 (10 μM), and A is the surface area of the insert (1.12 cm^2). The efflux ratio of IDP-73152 in the Caco-2 cell system was calculated by the ratio of Papp from B-to-A transport (Papp,B-to-A) to Papp from A-to-B transport (Papp,A-to-B).

Setting [4] is: male, beagle, dog, plasma, dogs, oral 20 mg/kg, hard gelatin capsules.

Where two headings read alike, the source gives them in different places.

Usually AUC(0-inf) stands for the area under the concentration-time curve extrapolated to infinity. For orientation: bioavailability means the share of a dose that reaches the circulation, judged against a reference dose that is usually intravenous. One may read the Cmax as the highest concentration seen after dosing. One may read the Tmax as the time at which the peak concentration occurs. One may read the efflux ratio as a quotient of directional permeabilities that is used to spot active efflux. In general, Papp A→B refers to how fast a substance crosses the layer from the apical side. A high value points to ready permeation. The Papp B→A is how fast a substance crosses the layer from the basolateral side.

Turning to `CC(C)(C)[C@H](NC(=O)[C@H](CC1CCCC1)CN(O)C=O)C(=O)N1CCC(NCc2cc(F)c(F)cc2F)CC1` [IDP-73152], in series [1], the blood plasma ratio at 60 min was 1.24 ± 0.08. The molecule also had a CLp in series [2] (dogs, intravenous 10 mg/kg, 10 mg/kg) of 11.1 ± 4.32 mL/min/kg. Also, the AUC(0-inf) in series [2] (male, beagle, dog, plasma, iv, 10 mg/kg) is 16600 ± 5900 ng·h/mL; in series [2] (setting [4]) it was 31600 ± 5900 ng·h/mL. Besides, the clearance in series [2] (male, beagle, dog, plasma, iv, 10 mg/kg, dogs, intravenous 10 mg/kg, read-out: CLp (converted)) is 10.3 mL/min/kg. Moreover, in series [2] (male, beagle, dog, plasma, dogs, intravenous 10 mg/kg, moment analysis, read-out: Vss), the Vd is 1.15 ± 0.46 L/kg. For the same molecule, the half-life in series [2] (male, beagle, dog, plasma, dogs, intravenous 10 mg/kg, read-out: t1/2 (converted)) was 1.18 ± 0.14 h; in series [2] (male, beagle, dog, plasma, dogs, oral 20 mg/kg, hard gelatin capsules, read-out: t1/2 (terminal phase half-life) (converted)), 1.81 ± 0.04 h. Besides, the bioavailability in series [2] (male, beagle, dog, plasma, dogs, oral 20 mg/kg vs intravenous 10 mg/kg, read-out: F (bioavailability)) was determined as 95.5%. The Cmax in series [2] (setting [4]) worked out at 10500 ± 2000 ng/mL. In series [2] (setting [4]), the Tmax is 0.777 ± 0.387 h. In addition, the recovery at 2 h, 10 µM was 96.6 ± 5.1% in series [3] (read-out: recovery, A to B transport) and 93.4 ± 3% in series [3] (read-out: recovery, B to A transport). Further, the efflux ratio at 2 h, 10 µM in series [3] (Caco-2, Papp,B-to-A / Papp,A-to-B) is under 2. The molecule also displayed a Papp A→B at 2 h, 10 µM in series [3] (Caco-2 monolayer, 10 µM, apical-to-basolateral) of 31.2 ± 1.93 ×10⁻⁶ cm/s. The Papp B→A at 2 h, 10 µM in series [3] (Caco-2 monolayer, 10 µM, basolateral-to-apical) is 49.5 ± 3.5 ×10⁻⁶ cm/s.

These data come from PMC9227536, “Prediction of Pharmacokinetics of IDP-73152 in Humans Using Physiologically-Based Pharmacokinetics” (Pharmaceutics, 2022).
